The values that follow come from US20240209022A1, “NOVEL PEPTIDE HAVING ANTI-INFLAMMATORY AND TISSUE REGENERATIVE ACTIONS” (KOREA RESEARCH INSTITUTE OF BIOSCIENCE AND BIOTECHNOLOGY, priority 2020, published 2024).

Test [1] concerns animal model of metabolic disease accompanied by obesity/diabetes and chronic inflammation. The test can be described thus: High-fat diet obesity/diabetic metabolic disease model. As to conditions: for blood glucose in insulin resistance experiment (ITT): after insulin administration, time as stated in the value. It counts as in vivo, C57BL/6J mice. As for the experimental part: An animal model of metabolic disease accompanied by obesity/diabetes and chronic inflammation was induced by feeding a high-fat diet.
The experiment in the groups administered with Amuc_1409 or PEP001 to PEP005 was performed using 8-week-old SPF male C57BL/6J mice, and the metabolic disease accompanied by obesity/diabetes and chronic inflammation was induced by ad libitum feeding of a high-fat diet for 45 weeks or 8 weeks. Specifically, mice fed a high-fat diet for 45 weeks were fed a high-fat diet for an additional 3 weeks, and Amuc_1409 was dissolved in PBS buffer at a concentration of 2.4 μM and then orally administered to the mice by 150 μL per animal at the same time once a day until the end of the experiment, or mice fed a high-fat diet for 8 weeks were fed a high-fat diet for an additional 3 weeks, and PEP001, PEP002, PEP003, PEP004, or PEP005 was dissolved in PBS buffer at a concentration of 2.4 μM and then orally administered to the mice by 150 μL per animal at the same time once a day until the end of the experiment. To the control group, PBS buffer was orally administered in the same manner.
For the experiment in the groups administered with PEP006 to PEP013, 8-week-old male C57BL/6J mice were used, and the metabolic disease accompanied by obesity/diabetes and chronic inflammation was induced by ad libitum feeding of a high-fat diet for 32, 50, or 53 weeks. Mice fed a high-fat diet for 32 weeks were fed a high-fat diet for an additional 3 weeks, and a novel tetrapeptide PEP006 was dissolved in PBS buffer at a concentration of 0.15 μg/150 μL (PEP006) and then orally administered to the mice by 150 μL per animal at the same time until the end of the test, mice fed a high-fat diet for 50 weeks were fed a high-fat diet for an additional 3 weeks, and a novel tetrapeptide PEP007, PEP008, PEP009, or PEP010 was dissolved in PBS buffer at a concentration of 0.2 μg/150 μL (PEP007 to PEP013) and then orally administered to the mice by 150 μL per animal at the same time until the end of the test, and mice fed a high-fat diet for 53 weeks were fed a high-fat diet for an additional 3 weeks, and a novel […] PEP011, PEP012, or PEP013 was dissolved in PBS buffer at a concentration of 0.2 μg/150 μL (PEP007 to PEP013) and then orally administered to the mice by 150 μL per animal at the same time until the end of the test. To the control group, PBS buffer was orally administered in the same manner.
For all animals, general symptoms were observed immediately before administration at the start of administration, and the body weight was measured until the end of the test after group separation.
Insulin (Humalog, 1 unit/kg) was intraperitoneally injected into mice fasted for 4 hours at 2 weeks after the start of test substance administration (2 weeks in groups administered with Amuc_1409 and PEP001 to PEP005 and 3 weeks in groups administered with PEP006 to PEP013), and then blood glucose at 30 minutes, 60 minutes, 90 minutes, and 120 minutes was measured from a small amount of blood obtained through a wound at the tip of the tail using ACCU-CHECK (Roche), thereby performing an insulin tolerance test (ITT).
At the end of the test, fasting blood glucose was measured from a small amount of blood obtained through a wound at the tip of the tail of the mouse fasted for 16 hours using ACCU-CHECK, and blood was collected from the orbital venous plexus using a heparin-treated capillary tube. The collected blood was immediately centrifuged at 10,000 rpm (4° C.) for 10 minutes to separate plasma, and then subjected to analysis of total cholesterol (TC) and low-density lipoprotein cholesterol (LDL-C), which are blood abnormal lipid indicators, using an automated blood biochemical analyzer.

Test [2] deals with MIA-induced degenerative arthritis model. Put plainly: MIA-induced degenerative arthritis model. Format: in vivo, C57BL/6J mice. The note with it: for diameter of the knee joint: day 1 after MIA injection, i.p. As for the experimental part: As a degenerative arthritis model, 9-week-old specific pathogen free (SPF) male C57BL/6J mice were anesthetized, the area around the right knee joint was cleanly shaved, and 10 μL of MIA solution (monosodium iodoacetate 0.5 mg in 10 μL 0.9% sterile saline) was injected into the knee joint cavity to induce arthritis. From 3 days before MIA (monosodium iodoacetate) solution injection, Amuc_1409 or PEP001, PEP002, PEP003, PEP004, PEP005, PEP006, PEP007, PEP008, PEP009, PEP010, PEP011, PEP012, or PEP013 was dissolved in PBS buffer at a concentration of 6.7 μM and then injected into the mouse peritoneal cavity at 150 μL per animal once a day at the same time. On day 3 (0 days) after administration of Amuc_1409 or PEP001 to PEP013, an additional intraperitoneal injection was given 1 hour before MIA injection, the drug was intraperitoneally injected once a day at the same time after MIA injection, and the experiment was terminated on the 30th day after MIA injection. In the control group, the same volume of PBS buffer was injected intraperitoneally. After MIA injection, the diameter of the knee joint was measured using a caliper for 7 days at 2-day intervals (0, 1, 3, 5, and 7 days) to evaluate swelling caused by inflammatory changes of the joint. […] At this time, the weight bearing on the limb was lower as arthritis was more severe. The weight-bearing weight (g) of each of both paws was measured, and in this experiment, the value was expressed as the ratio (%) of the right hind limb with arthritis to the total hind limb. Weight bearing ratio (%)=weight-bearing weight of right hind limb with arthritis (g)/weight-bearing weight of both hind limbs (g)×100 After termination of the experiment, the test animals were sacrificed, then the knee joint tissue of the mouse was fixed with 10% neutral buffered formalin, and the bone was decalcified with a 0.5 M EDTA solution. Next, the joint tissue was embedded in paraffin to prepare a 5 μm joint section, and Safranin O staining was performed to histopathologically analyze the degree of damage to the cartilage tissue. At this time, the degree of damage to the cartilage tissue was evaluated by examining the degree of safranin O staining of the sections and scored according to OARSI (Osteoarthritis Research Society International grade) guidelines. The scoring criteria according to the OARSI guidelines are as follows (Table 1). [table]

Where [3] appears, read: 2 weeks after MIA injection, vs PBS buffer group.
The mark [4] stands for this setting: 4 weeks after MIA injection, vs PBS buffer group.
Where [5] appears, read: day 3 after MIA injection, vs PBS buffer group.
The mark [6] stands for this setting: day 5 after MIA injection, vs PBS buffer group.
The mark [7] stands for this setting: day 7 after MIA injection, vs PBS buffer group.
Where [8] appears, read: 2 weeks and 4 weeks after MIA injection, vs PBS buffer group.

With RGAY (PEP007), in test [1] (vs PBS buffer group), the “blood glucose in insulin resistance experiment (ITT)” value (shortened to “blood glucose … (ITT)”) is recorded as “decreased to a significant level from 30 minutes to 120 minutes after insulin administration”. Moreover, in test [1] (vs PBS buffer group), the “AUC value of the insulin resistance experiment” value (“AUC value” for short) was “decreased close to a significant level”. Further, the weight bearing ratio entry in test [2] (setting [3]) and in test [2] (setting [4]) was “significantly increased” in each case. Besides, the “diameter of the knee joint” value in test [2] (vs PBS buffer group) was “significantly decreased”. The “thickness of the knee joint” value in test [2] (setting [5]) is recorded as “significantly decreased”; in test [2] (setting [6]), “tended to decrease”; in test [2] (setting [7]), “significantly decreased”.
On to AGS [PEP012], for which, in test [1] (vs PBS buffer group), the “blood glucose … (ITT)” value is reported as “decreased close to a significant level from 30 minutes to 120 minutes after insulin administration” and the “AUC value” value is given as “decreased close to a significant level”. Further, the weight bearing ratio entry in test [2] (setting [8]) was “significantly improved”.
Regarding SGAY (PEP009), the “blood glucose … (ITT)” value in test [1] (vs PBS buffer group) is given as “decreased to a significant level from 30 minutes to 120 minutes after insulin administration”. Besides, in test [1] (vs PBS buffer group), the “AUC value” value is reported as “decreased close to a significant level”. Also, the weight bearing ratio result in test [2] (setting [3]) is reported as “tended to increase close to a significant level”; in test [2] (setting [4]) it was “significantly increased”. In test [2] (vs PBS buffer group), the “diameter of the knee joint” value is “tended to decrease”. Further, the results for the “thickness of the knee joint” value in test [2] (setting [5]), in test [2] (setting [6]) and in test [2] (setting [7]) were “significantly decreased”, “tended to decrease” and “significantly decreased”, respectively.
In the case of AGAY (PEP006), in test [1] (vs PBS buffer group), the “blood glucose … (ITT)” value is given as “decreased to a significant level from 30 minutes to 120 minutes after insulin administration” and the “AUC value” value is “decreased close to a significant level”. In addition, in test [2] (setting [3]), the weight bearing ratio result is given as “significantly increased”. Further, the weight bearing ratio entry in test [2] (setting [4]) was “significantly increased”.

B1: Amuc_1409: SEQ ID NO: 15, functional fragment obtained by eliminating the leader sequence from SEQ ID NO: 14; protein derived from Akkermansia muciniphila (protein)
chain: IPESSVPAAAVSSIKGAYPNAGPIEWDSEMHGMERIYEAEFRINGFQFDVKIAPDGKIVRIKEEIAASSLPEAVRASVLKRYPGCRIKEAEKITEGELVRYKVEVADSRDDYDVLIAPDGNILHVDR
modifications: Amuc_1409_fragment
notes: protein derived from Akkermansia muciniphila
For B1, in test [1] (after fasting for 16 hours at the end of the test), the fasting blood glucose entry was “significantly decreased”. Also, in test [1] (vs PBS buffer group), the “blood glucose … (ITT)” value was “decreased from 30 minutes to 120 minutes after insulin administration”, the “AUC value” value is “decreased close to a significant level” and the abdominal fat result is “significantly decreased”. The body weight result in test [1] (oral, 3 weeks on high-fat diet, vs PBS buffer group) was “decreased from the initial body weight”. For the same molecule, in test [1] (until 120 minutes after insulin), the “maintenance of the decreased blood glucose in insulin resistance experiment” value is reported as “significantly maintained until 120 minutes”. The weight bearing ratio entry in test [2] (setting [8]) is listed as “significantly increased”. For the same molecule, the “histopathological findings in knee joint tissue, safranin O staining” value in test [2] (after termination of the experiment) was “only a slight loss of safranin O was observed in the cartilage zone and the overall cartilage morphology was maintained”. In test [2] (vs PBS buffer group), the “diameter of the knee joint” value is on record as “significantly decreased” and the “degree of cartilage destruction by OARSI score” value is recorded as “significantly decreased”. Besides, in test [2] (days 3, 5, and 7 after MIA injection, vs PBS buffer group), the “thickness of the knee joint” value is reported as “significantly decreased”.
